Laboratory results published in US9198918B2, “Benzoxazepin PI3K inhibitor compounds and methods of use” (Genentech, Inc., priority 2009, dated 2015).

Legend:
PI3K alpha (p110 alpha) = target: T1, PI3K alpha (p110 alpha) (Homo sapiens, UniProt P42336); assay: PI3K p110α (alpha) binding assay (Example 901); conditions: read-out: IC50, inhibition of PI3K alpha (binding to p110 alpha)
T1 construct: purchased Upstate Cell Signaling Solutions, Charlottesville, Va
Description: Determination of the PI3 kinase activity of a Formula I compound is possible by a number of direct and indirect detection methods.

AU565 = assay: CellTiter-Glo cell proliferation assay, AU565; format: cell-based; conditions: Homo sapiens, Breast, mutation status WT
Procedure: (§1) Efficacy of Formula I compounds was measured by a cell proliferation assay employing the following protocol (Promega Corp. Technical Bulletin TB288; Mendoza et al (2002) Cancer Res. 62:5485-5488):
(§2) 1. An aliquot of 100 μl of cell culture containing about 104 cells (PC3, Detroit562, or MDAMB361.1) in medium was deposited in each well of a 384-well, opaque-walled plate.
(§3) 2. Control wells were prepared containing medium and without cells.
(§4) 3. The compound was added to the experimental wells and incubated for 3-5 days.
(§5) 4. The plates were equilibrated to room temperature for approximately 30 minutes.
(§6) 5. A volume of CellTiter-Glo Reagent equal to the volume of cell culture medium present in each well was added.
(§7) 6. The contents were mixed for 2 minutes on an orbital shaker to induce cell lysis.
(§8) 7. The plate was incubated at room temperature for 10 minutes to stabilize the luminescence signal.
(§9) 8. Luminescence was recorded and reported in graphs as RLU=relative luminescence units.
(§10) Alternatively, cells were seeded at optimal density in a 96 well plate and incubated for 4 days in the presence of test compound. Alamar Blue™ was subsequently added to the assay medium, and cells were incubated for 6 hr before reading at 544 nm excitation, 590 nm emission. EC50 values were calculated using a sigmoidal dose response curve fit. The term EC50 refers to the half maximal effective concentration and is the concentration at which a drug induces a response halfway between the baseline and maximum after some specified exposure time. It is commonly used as a measure of drug potency.
(§11) The anti-proliferative effects of Formula I exemplary compounds were measured by the CellTiter-Glo® Assay against various tumor cell lines, including the following: […]

CAL120 = assay: CellTiter-Glo cell proliferation assay, CAL120; format: cell-based; conditions: Homo sapiens, CAL-120, Breast, mutation status WT
Procedure: as §1, §2, §3, §4, §5, §6
6. […]
as §8, §9
(§12) Alternatively, cells were seeded at optimal density in a 96 well plate and incubated for 4 days in the presence of test compound. Alamar Blue™ was subsequently added to the assay medium, and cells were incubated for 6 hr before reading at 544 nm excitation, 590 nm emission. EC50 values were calculated using a sigmoidal dose response curve fit. […]
as §11

CAL51 = assay: CellTiter-Glo cell proliferation assay, CAL51; format: cell-based; conditions: Homo sapiens, CAL-51, Breast, mutation status PI3K/PTEN
Procedure: as §1, §2, §3, §4, §5, §6
6. […]
as §8, §9, §12, §11

EFM19-2A = assay: CellTiter-Glo cell proliferation assay, EFM19-2A; format: cell-based; conditions: EFM-192A, Breast, mutation status WT
Procedure: as §1, §2, §3, §4, §5, §6
6. […]
as §8, §9, §12, §11

EVSA-T = assay: CellTiter-Glo cell proliferation assay, EVSA-T; format: cell-based; conditions: Homo sapiens, Breast, mutation status PTEN
Procedure: as §1, §2, §3, §4, §5, §6, §7, §8, §9, §10, §11

HCC1954 = assay: CellTiter-Glo cell proliferation assay, HCC1954; format: cell-based; conditions: Homo sapiens, Breast, mutation status PI3K
Procedure: as §1, §2, §3, §4, §5, §6, §7, §8, §9, §10, §11

KPL4 = assay: CellTiter-Glo cell proliferation assay, KPL4; format: cell-based; conditions: Breast, mutation status PI3K
Procedure: as §1, §2, §3, §4, §5, §6, §7, §8, §9, §10, §11

MCF7 = assay: CellTiter-Glo cell proliferation assay, MCF7; format: cell-based; conditions: Homo sapiens, Breast, mutation status PI3K
Procedure: as §1, §2, §3, §4, §5, §6
6. […]
as §8, §9, §12, §11

MDA-MB-231 = assay: CellTiter-Glo cell proliferation assay, MDA-MB-231; format: cell-based; conditions: Homo sapiens, Breast, mutation status K-RAS
Procedure: as §1, §2, §3, §4, §5, §6
6. […]
as §8, §9, §12, §11

MDA-MB-361.1 = assay: CellTiter-Glo cell proliferation assay, MDA-MB-361.1; format: cell-based; conditions: Breast, mutation status PI3K
Procedure: as §1, §2, §3, §4, §5, §6, §7, §8, §9, §10, §11

MFM223 = assay: CellTiter-Glo cell proliferation assay, MFM223; format: cell-based; conditions: Homo sapiens, MFM-223, Breast, mutation status PI3K
Procedure: as §1, §2, §3, §4, §5, §6, §7, §8, §9, §10, §11

SKBR3 = assay: CellTiter-Glo cell proliferation assay, SKBR3; format: cell-based; conditions: Homo sapiens, SK-BR-3, Breast, mutation status WT
Procedure: as §1, §2, §3, §4, §5, §6
6. […]
as §8, §9, §12, §11

T47D = assay: CellTiter-Glo cell proliferation assay, T47D; format: cell-based; conditions: Homo sapiens, Breast, mutation status PI3K
Procedure: as §1, §2, §3, §4, §5, §6, §7, §8, §9, §10, §11

Colo205 = assay: CellTiter-Glo cell proliferation assay, Colo205; format: cell-based; conditions: Homo sapiens, COLO 205, Colon, mutation status B-Raf
Procedure: as §1, §2, §3, §4, §5, §6
6. […]
as §8, §9, §12, §11

HCT116 = assay: CellTiter-Glo cell proliferation assay, HCT116; format: cell-based; conditions: Homo sapiens, HCT-116, Colon, mutation status PI3K/KRAS
Procedure: as §1, §2, §3, §4, §5, §6
6. […]
as §8, §9, §12, §11

RKO = assay: CellTiter-Glo cell proliferation assay, RKO; format: cell-based; conditions: Homo sapiens, Colon, mutation status PI3K
Procedure: as §1, §2, §3, §4, §5, §6
6. […]
as §8, §9, §12, §11

LN229 = assay: CellTiter-Glo cell proliferation assay, LN229; format: cell-based; conditions: Homo sapiens, LN-229, Glioma, mutation status PI3K
Procedure: as §1, §2, §3, §4, §5, §6
6. […]
as §8, §9, §12, §11

U87MG = assay: CellTiter-Glo cell proliferation assay, U87MG; format: cell-based; conditions: Homo sapiens, U-87 MG, Glioma, mutation status PTEN
Procedure: as §1, §2, §3, §4, §5, §6
6. […]
as §8, §9, §12, §11

H1703 = assay: CellTiter-Glo cell proliferation assay, H1703; format: cell-based; conditions: Homo sapiens, NCI-H1703, Lung(NSCLC), mutation status WT
Procedure: as §1, §2, §3, §4, §5, §6
6. […]
as §8, §9, §12, §11

H2122 = assay: CellTiter-Glo cell proliferation assay, H2122; format: cell-based; conditions: Homo sapiens, NCI-H2122, Lung(NSCLC), mutation status K-RAS
Procedure: as §1, §2, §3, §4, §5, §6, §7, §8, §9, §10, §11

537MEL = assay: CellTiter-Glo cell proliferation assay, 537MEL; format: cell-based; conditions: Homo sapiens, Melanoma, mutation status PTEN
Procedure: as §1, §2, §3, §4, §5, §6
6. […]
as §8, §9, §12, §11

A2058 = assay: CellTiter-Glo cell proliferation assay, A2058; format: cell-based; conditions: Homo sapiens, Melanoma, mutation status PTEN
Procedure: as §1, §2, §3, §4, §5, §6
6. […]
as §8, §9, §12, §11

A375 = assay: CellTiter-Glo cell proliferation assay, A375; format: cell-based; conditions: Homo sapiens, A-375, Melanoma, mutation status B-Raf
Procedure: as §1, §2, §3, §4, §5, §6
6. […]
as §8, §9, §12, §11

IGROV1 = assay: CellTiter-Glo cell proliferation assay, IGROV1; format: cell-based; conditions: Homo sapiens, IGROV-1, Ovarian, mutation status PI3K
Procedure: as §1, §2, §3, §4, §5, §6
6. […]
as §8, §9, §12, §11

TOV21GX1 = assay: CellTiter-Glo cell proliferation assay, TOV21GX1; format: cell-based; conditions: Ovarian, mutation status PI3K/PTEN
Procedure: as §1, §2, §3, §4, §5, §6
6. […]
as §8, §9, §12, §11

PC3 = assay: CellTiter-Glo cell proliferation assay, PC3; format: cell-based; conditions: Homo sapiens, PC-3, Prostate, mutation status PTEN
Procedure: as §1, §2, §3, §4, §5, §6, §7, §8, §9, §10, §11

T1 sequence (P42336 whole entry): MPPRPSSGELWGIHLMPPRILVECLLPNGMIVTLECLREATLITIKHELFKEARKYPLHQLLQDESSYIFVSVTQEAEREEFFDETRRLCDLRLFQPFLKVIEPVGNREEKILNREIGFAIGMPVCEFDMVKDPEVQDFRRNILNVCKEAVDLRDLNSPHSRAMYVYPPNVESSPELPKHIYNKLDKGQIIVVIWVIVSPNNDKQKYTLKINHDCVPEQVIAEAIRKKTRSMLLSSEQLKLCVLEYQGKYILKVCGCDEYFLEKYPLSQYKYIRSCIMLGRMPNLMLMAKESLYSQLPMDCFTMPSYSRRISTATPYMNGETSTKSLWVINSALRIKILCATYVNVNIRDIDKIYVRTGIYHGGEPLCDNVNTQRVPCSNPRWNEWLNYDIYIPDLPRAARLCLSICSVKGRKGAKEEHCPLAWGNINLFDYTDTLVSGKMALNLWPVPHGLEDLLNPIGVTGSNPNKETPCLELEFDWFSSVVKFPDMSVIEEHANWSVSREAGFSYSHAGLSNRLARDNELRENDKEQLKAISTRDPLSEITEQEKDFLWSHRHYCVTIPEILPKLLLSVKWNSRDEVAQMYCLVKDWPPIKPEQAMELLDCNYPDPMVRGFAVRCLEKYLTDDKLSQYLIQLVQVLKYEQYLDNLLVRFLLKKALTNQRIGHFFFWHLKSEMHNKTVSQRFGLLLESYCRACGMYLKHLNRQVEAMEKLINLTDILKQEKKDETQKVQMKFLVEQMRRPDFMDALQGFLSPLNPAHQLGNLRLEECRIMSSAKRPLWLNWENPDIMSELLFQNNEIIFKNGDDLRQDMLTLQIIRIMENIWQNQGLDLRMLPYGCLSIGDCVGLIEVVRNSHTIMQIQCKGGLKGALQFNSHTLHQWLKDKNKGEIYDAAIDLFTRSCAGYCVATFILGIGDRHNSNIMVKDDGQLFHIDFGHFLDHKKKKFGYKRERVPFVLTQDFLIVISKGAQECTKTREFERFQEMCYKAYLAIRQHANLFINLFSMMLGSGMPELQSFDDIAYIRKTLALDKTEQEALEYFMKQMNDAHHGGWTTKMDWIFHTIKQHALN
T1 sequence (P27986 whole entry partner): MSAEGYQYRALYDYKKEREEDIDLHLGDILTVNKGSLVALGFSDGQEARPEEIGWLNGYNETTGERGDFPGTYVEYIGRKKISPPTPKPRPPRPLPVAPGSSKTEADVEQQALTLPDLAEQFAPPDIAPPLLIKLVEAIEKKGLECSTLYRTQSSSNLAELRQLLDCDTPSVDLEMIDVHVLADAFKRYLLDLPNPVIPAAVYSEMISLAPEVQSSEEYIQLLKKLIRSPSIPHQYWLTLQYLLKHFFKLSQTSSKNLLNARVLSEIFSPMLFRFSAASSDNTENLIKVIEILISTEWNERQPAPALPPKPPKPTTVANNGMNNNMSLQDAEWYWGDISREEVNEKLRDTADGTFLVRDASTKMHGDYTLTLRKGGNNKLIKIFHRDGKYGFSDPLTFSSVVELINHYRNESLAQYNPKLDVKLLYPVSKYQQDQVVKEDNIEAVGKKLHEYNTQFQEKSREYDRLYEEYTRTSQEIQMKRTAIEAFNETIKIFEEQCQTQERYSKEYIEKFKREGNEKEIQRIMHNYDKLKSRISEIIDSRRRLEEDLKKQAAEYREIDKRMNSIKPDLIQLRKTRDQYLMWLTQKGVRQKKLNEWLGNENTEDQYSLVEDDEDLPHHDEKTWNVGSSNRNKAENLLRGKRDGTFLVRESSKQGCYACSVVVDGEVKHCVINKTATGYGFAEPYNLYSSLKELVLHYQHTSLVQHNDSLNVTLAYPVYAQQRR

CC(C)n1ncnc1-c1cn2c(n1)-c1ccc(-c3cnn(CC(C)(C)O)c3)cc1OCC2 [compound 180, 1-(4-(2-(1-isopropyl-1H-1,2,4-triazol-5-yl)-5,6-dihydrobenzo[f]imidazo[1,2-d][1,4]oxazepin-9-yl)-1H-pyrazol-1-yl)-2-methylpropan-2-ol]
IC50 (PI3K alpha (p110 alpha)): 0.18 nM | EC50 (AU565): 230 nM | EC50 (CAL120): 2120 nM | EC50 (CAL51): 672 nM | EC50 (EFM19-2A): 146 nM | EC50 (EVSA-T): 2040 nM | EC50 (HCC1954): 168 nM | EC50 (KPL4): 39 nM | EC50 (MCF7): 121 nM | EC50 (MDA-MB-231): ≥ 10000 nM | EC50 (MDA-MB-361.1): 214 nM | EC50 (MFM223): 439 nM | EC50 (SKBR3): 144 nM | EC50 (T47D): 123 nM | EC50 (Colo205): 259 nM | EC50 (HCT116): 1020 nM | EC50 (RKO): 2500 nM | EC50 (LN229): 869 nM | EC50 (U87MG): 787 nM | EC50 (H1703): 225 nM | EC50 (H2122): 515 nM | EC50 (537MEL): 2430 nM | EC50 (A2058): ≥ 10000 nM | EC50 (A375): ≥ 10000 nM | EC50 (IGROV1): 60 nM | EC50 (TOV21GX1): 3590 nM | EC50 (PC3): 769 nM
